Measurements: patent US20150315188A1, “COMPOUNDS AND METHODS FOR TREATMENT OF HYPERTENSION” (MEDIVATION TECHNOLOGIES, INC., priority 2012, published 2015)

What was measured:
Design in all cases: purchased Milipore (Millipore)
[1] = target: T1, Human adrenergic α1B receptor (Homo sapiens, UniProt P35368); experiment: Radioligand binding, adrenergic α1B (Protocol Group B); conditions: Protocol Group B; for Percentage inhibition of ligand binding, Adrenergic α1B (0.1 μM) / inhibition at 0.1 µM: 0.1 μM compound; for Percentage inhibition of ligand binding, Adrenergic α1B (0.3 μM) / inhibition at 0.3 µM: 0.3 μM compound; for inhibition at 0.1 µM: read-out: Percentage inhibition of ligand binding, Adrenergic α1B (0.1 μM); for inhibition at 0.3 µM: read-out: Percentage inhibition of ligand binding, Adrenergic α1B (0.3 μM)
T1 sequence (P35368 1-520): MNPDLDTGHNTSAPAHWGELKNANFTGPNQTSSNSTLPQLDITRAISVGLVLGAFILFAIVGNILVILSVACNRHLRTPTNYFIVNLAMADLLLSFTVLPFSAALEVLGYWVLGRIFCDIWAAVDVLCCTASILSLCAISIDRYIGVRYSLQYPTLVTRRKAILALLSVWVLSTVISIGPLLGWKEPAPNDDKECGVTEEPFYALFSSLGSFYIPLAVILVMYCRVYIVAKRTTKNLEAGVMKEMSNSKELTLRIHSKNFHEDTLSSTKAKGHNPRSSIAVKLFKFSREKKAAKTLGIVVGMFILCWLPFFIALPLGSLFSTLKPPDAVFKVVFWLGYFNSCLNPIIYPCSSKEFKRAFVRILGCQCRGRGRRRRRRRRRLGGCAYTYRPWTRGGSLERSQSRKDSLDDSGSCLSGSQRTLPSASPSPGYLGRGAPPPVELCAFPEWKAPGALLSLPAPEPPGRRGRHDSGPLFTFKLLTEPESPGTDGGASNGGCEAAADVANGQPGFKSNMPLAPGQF
How it was run: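 Recombinant human α1B membranes incubated with test compound and 0.3 nM [3H]prazosin, 60 min at 25 °C, in 50 mM Tris-HCl pH 7.4, 10 mM MgCl2, 1 mM EDTA; nonspecific binding with 10 μM prazosin. Filter-bound radioactivity counted; values are % inhibition of specific binding or estimated Ki.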

[2] = target: T2, Human adrenergic α2A receptor (Homo sapiens, UniProt P08913); experiment: Radioligand binding, adrenergic α2A (Protocol Group B); conditions: Protocol Group B; for Percentage inhibition of ligand binding, Adrenergic α2A (0.1 μM) / inhibition at 0.1 µM: 0.1 μM compound; for Percentage inhibition of ligand binding, Adrenergic α2A (0.3 μM) / inhibition at 0.3 µM: 0.3 μM compound; for inhibition at 0.3 µM: read-out: Percentage inhibition of ligand binding, Adrenergic α2A (0.3 μM); for inhibition at 0.1 µM: read-out: Percentage inhibition of ligand binding, Adrenergic α2A (0.1 μM)
T2 sequence (P08913 1-465): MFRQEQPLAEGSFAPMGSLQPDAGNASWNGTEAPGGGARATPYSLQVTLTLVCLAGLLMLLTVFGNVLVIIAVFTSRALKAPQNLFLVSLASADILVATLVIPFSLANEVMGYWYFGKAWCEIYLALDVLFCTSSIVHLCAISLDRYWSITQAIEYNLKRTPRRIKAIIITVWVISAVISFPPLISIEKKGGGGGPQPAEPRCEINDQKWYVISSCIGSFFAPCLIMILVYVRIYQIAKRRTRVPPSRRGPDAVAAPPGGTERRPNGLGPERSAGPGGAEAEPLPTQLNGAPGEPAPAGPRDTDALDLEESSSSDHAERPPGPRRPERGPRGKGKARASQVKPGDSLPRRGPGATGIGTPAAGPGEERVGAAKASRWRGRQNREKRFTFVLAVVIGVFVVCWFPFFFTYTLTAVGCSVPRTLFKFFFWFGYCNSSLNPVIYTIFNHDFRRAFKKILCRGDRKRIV
How it was run: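 Membranes from recombinant cells expressing the receptor, in 50 mM Tris-HCl pH 7.4 with 5 mM MgCl2, 1 mM CaCl2, 0.2% BSA; compounds incubated with 2 nM [^3H]MK-912 for 60 min at 25° C. Nonspecific binding defined by 10 μM rauwolscine; filtration, counting; percent inhibition of specific binding, or estimated Ki.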

[3] = target: T3, Human adrenergic α2B receptor (Homo sapiens, UniProt P18089); experiment: Radioligand binding, adrenergic α2B (Protocol Group B); conditions: Protocol Group B; for Percentage inhibition of ligand binding, Adrenergic α2B (10 nM) / inhibition at 0.01 µM: 10 nM compound; for Percentage inhibition of ligand binding, Adrenergic α2B (10 nM): 0.01 µM; for Percentage inhibition of ligand binding, Adrenergic α2B (30 nM) / inhibition at 0.03 µM: 30 nM compound; for Percentage inhibition of ligand binding, Adrenergic α2B (30 nM): 0.03 µM; for Percentage inhibition of ligand binding, Adrenergic α2B (0.1 μM) / inhibition at 0.1 µM: 0.1 μM compound; for inhibition at 0.03 µM: read-out: Percentage inhibition of ligand binding, Adrenergic α2B (30 nM); for inhibition at 0.01 µM: read-out: Percentage inhibition of ligand binding, Adrenergic α2B (10 nM); for inhibition at 0.1 µM: read-out: Percentage inhibition of ligand binding, Adrenergic α2B (0.1 μM)
T3 sequence (P18089 1-450): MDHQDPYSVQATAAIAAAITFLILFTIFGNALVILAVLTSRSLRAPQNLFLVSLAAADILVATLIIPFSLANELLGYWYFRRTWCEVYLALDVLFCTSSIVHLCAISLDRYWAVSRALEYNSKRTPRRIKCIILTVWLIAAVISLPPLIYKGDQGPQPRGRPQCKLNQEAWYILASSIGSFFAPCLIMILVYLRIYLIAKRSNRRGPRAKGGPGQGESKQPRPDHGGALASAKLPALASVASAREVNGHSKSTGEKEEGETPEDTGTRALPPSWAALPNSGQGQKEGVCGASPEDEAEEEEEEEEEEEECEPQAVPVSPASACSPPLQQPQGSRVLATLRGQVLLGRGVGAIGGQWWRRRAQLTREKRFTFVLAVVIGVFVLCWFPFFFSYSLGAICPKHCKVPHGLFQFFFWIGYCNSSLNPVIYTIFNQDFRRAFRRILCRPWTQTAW
How it was run: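 Recombinant human α2B receptor membranes incubated with compounds in 50 mM Tris-HCl pH 7.4, 5 mM MgCl2, 1 mM CaCl2, 0.2% BSA, 1% DMSO vehicle. Non-specific binding defined with 10 μM rauwolscine. Values are percent inhibition of specific binding or estimated Ki.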

| SMILES | Percentage inhibition of ligand binding, Adrenergic α1B (0.1 μM) [1] [%] | Percentage inhibition of ligand binding, Adrenergic α1B (0.3 μM) [1] [%] | Percentage inhibition of ligand binding, Adrenergic α2A (0.1 μM) [2] [%] | Percentage inhibition of ligand binding, Adrenergic α2A (0.3 μM) [2] [%] | Percentage inhibition of ligand binding, Adrenergic α2B (10 nM) [3] [%] | Percentage inhibition of ligand binding, Adrenergic α2B (30 nM) [3] [%] | Percentage inhibition of ligand binding, Adrenergic α2B (0.1 μM) [3] [%] | inhibition at 0.3 µM [2] [%] | inhibition at 0.03 µM [3] [%] | inhibition at 0.1 µM [1] [%] | inhibition at 0.3 µM [1] [%] | inhibition at 0.1 µM [2] [%] | inhibition at 0.01 µM [3] [%] | inhibition at 0.1 µM [3] [%] |
| --- | --- | --- | --- | --- | --- | --- | --- | --- | --- | --- | --- | --- | --- | --- |
| CC(O)(Cn1c2c(c3cc(C(F)(F)F)ccc31)C1CCCN1CC2)c1cccnc1 (single isomer, unassigned) [64b] | 4 | 27 | 10 | 37 | 15 | 47 | 76 |  |  |  |  |  |  |  |
| Cc1cc(Br)c2c(c1)c1c(n2CC(O)c2ccncc2)CCN2CCCC12 (single isomer, unassigned) [145a] | 46 |  | 39 |  |  |  |  |  | 84 |  |  |  |  |  |
| Cc1cc2c3c(n(CC(O)c4ccncc4)c2cc1Cl)CCN1CCCC31 (stereo not drawn) [compound 21, 2-(8-chloro-9-methyl-1,2,3,4,5,10c-hexahydro-3a, 6-diaza-cyclopenta[c]fluoren-6-yl)-1-pyridin-4-yl-ethanol] |  |  |  |  |  |  |  | 89 | 96 | 84 | 95 | 78 | 85 | 96 |
| Cc1ccc2c(c1)c1c(n2CC(C)(O)c2ccc(F)cc2)CC2CCC1N2C (single isomer, unassigned) [102c] | −4 | 5 | −12 | −5 | −14 | −5 | −8 |  |  |  |  |  |  |  |
| Cc1ccc2c(c1)c1c(n2CC(O)c2cc[n+]([O-])cc2)CCN2CCCC12 (stereo not drawn) [compound 22, 4-(1-hydroxy-2-(10-methyl-2,3,5,6-tetrahydro-1H-indolizino[7,8-b]indol-7 (11cH)-yl)ethyl)pyridine 1-oxide] |  |  |  |  |  |  |  | 15 | 61 | 11 | 30 | 7 | 30 | 72 |
| Cc1ccc2c(c1)c1c(n2CC(C)(O)c2cccnc2)CC2CCC1N2C (single isomer, unassigned) [101b] | −3 |  | 1 | 8 | 2 | 3 | 32 |  |  |  | 5 |  |  |  |
| CN1CCc2c(c3c(Cl)ccc(Cl)c3n2CC(O)c2cccnc2)C1 (stereo not drawn) [Compound No. 17, 2-(6,9-dichloro-2-methyl-3,4-dihydro-1H-pyrido[4,3-b]indol-5 (2H)-yl)-1-(pyridin-3-yl)ethanol] |  |  |  |  |  |  |  | 15 | -12 | 10 | 11 | 10 | 4 | -13 |

More lines, now with the values ahead:

| Percentage inhibition of ligand binding, Adrenergic α1B (0.1 μM) [1] [%] | Percentage inhibition of ligand binding, Adrenergic α1B (0.3 μM) [1] [%] | Percentage inhibition of ligand binding, Adrenergic α2A (0.1 μM) [2] [%] | Percentage inhibition of ligand binding, Adrenergic α2A (0.3 μM) [2] [%] | Percentage inhibition of ligand binding, Adrenergic α2B (10 nM) [3] [%] | Percentage inhibition of ligand binding, Adrenergic α2B (30 nM) [3] [%] | Percentage inhibition of ligand binding, Adrenergic α2B (0.1 μM) [3] [%] | inhibition at 0.3 µM [2] [%] | inhibition at 0.03 µM [3] [%] | inhibition at 0.1 µM [1] [%] | inhibition at 0.3 µM [1] [%] | inhibition at 0.1 µM [2] [%] | inhibition at 0.01 µM [3] [%] | inhibition at 0.1 µM [3] [%] | SMILES |
| --- | --- | --- | --- | --- | --- | --- | --- | --- | --- | --- | --- | --- | --- | --- |
| 0 | 10 | −1 | 3 | 0 | 15 | 37 |  |  |  |  |  |  |  | Cc1ccc2c(c1)c1c(n2CC(C)(O)c2cncc(F)c2)CCN(C)C1 (single isomer, unassigned) [46b] |
| 0 | 15 | 3 |  | 6 | 10 | 33 | 20 |  |  |  |  |  |  | Cc1ccc2c(c1)c1c(n2CC(O)c2cccnc2)CC2CCCN2C1 (single isomer, unassigned) [27a] |
| 19 | 33 | 19 | 18 | −3 | −3 |  |  |  |  |  |  |  |  | Cc1cc(F)cc2c3c(n(CC(C)(O)c4cccnc4)c12)CC1CCCN1C3 (single isomer, unassigned) [76c] |
| −7 | 11 | 6 | 22 | −8 | 3 | 28 |  |  |  |  |  |  |  | Cc1cc(F)c2c(c1)c1c(n2CC(C)(O)c2cccnc2)CC2CCCN2C1 (single isomer, unassigned) [61b] |
| −10 | −7 | −6 | −7 | −7 | −4 | 8 |  |  |  |  |  |  |  | CC(O)(Cn1c2c(c3cc(F)ccc31)C1CCCN1CC2)c1cccnc1 (stereo not drawn) [57b] |
|  |  | 14 | 14 | 19 | 48 | 68 |  |  | 17 | 25 |  |  |  | Cc1ccc2c(c1)c1c(n2CC(C)(O)c2cccnc2)CC(CO)N(C)C1 (single isomer, unassigned) [15a] |
| 15 | 37 | −2 | 14 | 19 | 46 | 73 |  |  |  |  |  |  |  | Cc1ccc2c(c1)c1c(n2CC(C)(O)c2ccncc2)CC2CCCN2C1 (single isomer, unassigned) [37c] |
